The values that follow come from patent US20260062422A1 (Halda Therapeutics OpCo, Inc., priority 2022, published 2026).

The subject of the first experiment is T47D cells. Kind of experiment: Cellular growth inhibition assay for T47D cells, CellTiter-Glo. The experiment is classed as cell-based, human. The settings on record: 72 hours treatment, CellTiter-Glo 2.0 cell viability. In a few lines:
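Luminescence from CellTiter-Glo 2.0 after 72 h of compound exposure gives the viability signal. Cells grew in insulin-supplemented (0.2 units/mL) DMEM with 10% FBS and were treated one day after seeding at 0.5% DMSO. GI50 values come from four-parameter nonlinear regression.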
(ATP-based viability assays read luminescence as a measure of living cells.)
A word on the GI50: it is the concentration giving 50% growth inhibition. Read a high GI50 as lower sensitivity of the cells. `Cc1sc2c(c1C)C(c1ccc(CC3CC4(CCN(c5ncc(C(=O)N[C@H]6C(C)(C)[C@H](Oc7ccc(C#N)c(Cl)c7)C6(C)C)cn5)CC4)C3)cc1)=N[C@@H](C)c1nnc(C)n1-2` [Compound I-303] registered a 50% growth inhibitory concentration (GI50) of under 500 nM.

The experiment is the same for the next values; noted with them: Homo sapiens, T47D, 72 h, 72 hours treatment, CellTiter-Glo 2.0 cell viability.
The compound `Cc1sc2c(c1C)C(c1ccc(CC3CC4(CCN(c5ncc(C(=O)N[C@H]6C(C)(C)[C@H](Oc7ccc(C#N)c(Cl)c7)C6(C)C)cn5)CC4)C3)cc1)=N[C@@H](C)c1nnc(C)n1-2` [Compound I-436] gave a GI50 of under 500 nM. Consider `CCNC(=O)C[C@@H]1N=C(c2ccc(OCCCN(C)c3ncc(C(=O)N[C@H]4C(C)(C)[C@H](Oc5ccc(C#N)c(Cl)c5)C4(C)C)cn3)cc2)c2c(sc(C)c2C)-n2c(C)nnc21` [Compound I-81], for which the GI50 fell in the range of 500 to 1500 nM. For `CCNC(=O)C[C@@H]1N=C(c2ccc(OCCCCc3ncc(C(=O)N[C@H]4C(C)(C)[C@H](Oc5ccc(C#N)c(Cl)c5)C4(C)C)cn3)cc2)c2c(sc(C)c2C)-n2c(C)nnc21` [Compound I-86], the GI50 lay in the range of 500 to 1500 nM. `CCNC(=O)C[C@@H]1N=C(c2ccc(CCCN(C)c3ncc(C(=O)N[C@H]4C(C)(C)[C@H](Oc5ccc(C#N)c(Cl)c5)C4(C)C)cn3)cc2)c2c(sc(C)c2C)-n2c(C)nnc21` [Compound I-104] had a 50% growth inhibitory concentration (GI50) of under 500 nM.

In turn, `CCNC(=O)C[C@@H]1N=C(c2ccc(N3CC(N(C)C4CN(c5ncc(C(=O)N[C@H]6C(C)(C)[C@H](Oc7ccc(C#N)c(Cl)c7)C6(C)C)cn5)C4)C3)cc2)c2c(sc(C)c2C)-n2c(C)nnc21` [Compound I-121] returned a concentration for 50% growth inhibition (GI50) of under 500 nM.

`CCNC(=O)C[C@@H]1N=C(c2ccc(N3CCC(CN4CC(Oc5ncc(C(=O)N[C@H]6C(C)(C)[C@H](Oc7ccc(C#N)c(Cl)c7)C6(C)C)cn5)C4)CC3)cc2)c2c(sc(C)c2C)-n2c(C)nnc21` [Compound I-124] showed a GI50 of 500 to 1500 nM. Consider `Cc1sc2c(c1C)C(c1ccc(OC3CC4(CCN(c5ncc(C(=O)N[C@H]6C(C)(C)[C@H](Oc7ccc(C#N)c(Cl)c7)C6(C)C)cn5)CC4)C3)cc1)=NC(Cc1ncco1)c1nnc(C)n1-2` (stereo partly drawn) [Compound I-166], for which the GI50 was 500 to 1500 nM. With `CCNC(=O)C[C@@H]1N=C(c2ccc(N3CCC(N(C)C4CN(c5ncc(C(=O)N[C@H]6C(C)(C)[C@H](Oc7ccc(C#N)c(Cl)c7)C6(C)C)cn5)C4)CC3)cc2)c2c(sc(C)c2C)-n2c(C)nnc21` [Compound I-123], the GI50 is under 500 nM.
